Experimental data as given in patent US9938292B2 (GUANGDONG ZHONGSHENG PHARMACEUTICAL CO., LTD, priority 2014, dated 2018).

Test system: Hedgehog signaling pathway
Assay: Gli-Luc luciferase reporter gene assay in C3H10T1/2/Gli-Luc cells under Shh-N stimulation
Format: cell-based
Conditions: 24 h, luciferase RLU, read-out: biological activity: IC50 of the inhibitory activities of compounds on the hedgehog pathway
Source text: The luciferase (Gli-Luc) reporter gene with Gli response element was transfected into C3H10T1/2 cells, under Shh-N stimulation conditions, determine the Hedgehog signaling pathway inhibitors through the detection of gene expression in cell activity report. In this study, we evaluated the inhibitory effects of compounds on Hedgehog signaling pathway in the IC50 value of the compound as an index.
Cell lines: C3H10T1/2/Gli-Luc stable cell line • C3H10T1/2/Gli-Luc Cell culture medium (DMEM/high glucose HyClone, #SH30022.01B; 10% serum Hyclone, #SV30087; 0.4% Hygromycin B Roche, #13398200) • 0.25% Trypsin-EDTA (Gibco, #25200)
Shh-N, HEK293/SHH-N stable cell culture supernatant
Inoculate the logarithmic growth phase of C3H10T1/2/Gli-Luc cells into a 96-well culture plate with 20000 cells per well, cells were cultured in a 37° C., 5% CO2 incubator overnight. The next day, the compounds were diluted in the following ways: the positive compound GDC0449 (1 mM) and the compounds (1 mM) to be measured were serially diluted to 7 concentrations by DMSO according to 1:3 and 1:10 respectively, the eighth is for DMSO control, and then diluted with fresh medium 100 times. The medium of the cells cultured overnight was removed, 80 μL fresh culture medium was added per well, then 20 μL gradiently diluted positive compound and compounds to be measured and 100 μL 30 nM Shh-N containing conditioned medium were added, each concentration repeated 2 wells, at the same time, positive and negative reference well were set (i.e. Shh Ctrl: 80 μL fresh medium+20 μL 1% DMSO containing medium+100 μL 30 nM Shh-N containing conditioned medium; Unstimulated Ctrl: 180 μL fresh medium+20 μL 1% DMSO containing medium), cells were cultured in the incubator for further 24 h.
Intracellular luciferase activity detection: take the cells out of 96-well plate, discard the culture medium, the cells were washed with PBS twice, then each well added with 20 μL lysate (Promega E1531), oscillate pyrolysis at room temperature for 30 min. 5 μL cell lysates were transferred to 384-well plate (Greiner 781074), then each well was added with 25 μL luciferase reaction liquid (Promega E1501), after rapid mixed, immediately placed into the VarioSkan Flash multi-function reading instrument to read the relative light units (RLU) value.
Data analysis: using Prism's GraphPad 5 for data analysis. RLU reading to the logarithmic mapping of compound concentration on behalf of luciferase activity, and then curve fitting using the following equation to give IC50 value, Y (RLU)=minimum+(maximum−minimum)/(1+10^(log of compound concentration−Log IC50)).

| IC50 [nM] | SMILES |
| --- | --- |
| 100 to 500 | Cc1cn(-c2ccc(N3C[C@@H](C)N(C(=O)c4ccccc4)[C@H](C)C3)cc2)c(=O)c2cccc(-c3ccc(C#N)cc3)c12 [Embodiment 21] |

Same assay, conditions: Mus musculus, C3H 10T1/2, 24 h, luciferase RLU, read-out: biological activity: IC50 of the inhibitory activities of compounds on the hedgehog pathway

| SMILES | IC50 [nM] |
| --- | --- |
| Cc1cn(-c2ccc(N3CC4CC3CO4)cc2)c(=O)c2cccc(-c3ccc(C#N)cc3)c12 (stereo not drawn) [Embodiment 6] | 500 to 1000 |
| Cc1cn(-c2ccc(N3CC4CCC(C3)O4)cc2)c(=O)c2cccc(-c3ccc(C#N)cc3)c12 [Embodiment 7] | 500 to 1000 |
| Cc1cn(-c2ccc(N3CCOC(CN(C)C)C3)cc2)c(=O)c2cccc(-c3ccc(C#N)cc3)c12 (stereo not drawn) [Embodiment 9] | 1000 to 5000 |
| Cc1cn(-c2ccc(NCCN3C[C@@H](C)O[C@@H](C)C3)cc2)c(=O)c2cccc(-c3ccc(C#N)cc3)c12 [Embodiment 12] | 500 to 1000 |
| Cc1cn(-c2ccc(N3CC(C)N(C(=O)OC(C)(C)C)C(C)C3)cc2)c(=O)c2cccc(-c3ccc(C#N)cc3)c12 (stereo not drawn) [Embodiment 16] | 100 to 500 |
| CCC(=O)N1CCN(c2ccc(-n3cc(C)c4c(-c5ccc(C#N)cc5)cccc4c3=O)cc2)CC1c1ccccc1 (stereo not drawn) [Embodiment 18] | 100 to 500 |
| COC(=O)N1[C@H](C)CN(c2ccc(-n3cc(C)c4c(-c5ccc(C#N)cc5)cccc4c3=O)cc2)C[C@H]1C [Embodiment 19] | 100 to 500 |
| CCOC(=O)N1[C@H](C)CN(c2ccc(-n3cc(C)c4c(-c5ccc(C#N)cc5)cccc4c3=O)cc2)C[C@H]1C [Embodiment 20] | 100 to 500 |
| Cc1cn(-c2ccc(N3CC(C)N(C(=O)OC(C)C)C(C)C3)cc2)c(=O)c2cccc(-c3ccc(C#N)cc3)c12 (stereo not drawn) [Embodiment 29] | 100 to 500 |
| CNC(=O)N1C(C)CN(c2ccc(-n3cc(C)c4c(-c5ccc(C#N)cc5)cccc4c3=O)cc2)CC1C (stereo not drawn) [Embodiment 30] | 100 to 500 |
| Cc1cn(-c2ccc(N3CC(C)N(S(C)(=O)=O)C(C)C3)cc2)c(=O)c2cccc(-c3ccc(C#N)cc3)c12 (stereo not drawn) [Embodiment 31] | 100 to 500 |
| Cc1cn(-c2ccc(N3CC(C)N(S(=O)(=O)c4ccccc4)C(C)C3)cc2)c(=O)c2cccc(-c3ccc(C#N)cc3)c12 (stereo not drawn) [Embodiment 32] | 100 to 500 |
| Cc1cn(-c2ccc(N3CC(C)N(C)C(C)C3)cc2)c(=O)c2cccc(-c3ccc(C#N)cc3)c12 (stereo not drawn) [Embodiment 33, 4-(4-methyl-1-oxo-2-(4-(3,4,5-trimethylpiperazin-1-yl)phenyl)-1,2-dihydroisoquinolin-5-yl)benzonitrile] | 100 to 500 |
| CCN1C(C)CN(c2ccc(-n3cc(C)c4c(-c5ccc(C#N)cc5)cccc4c3=O)cc2)CC1C (stereo not drawn) [Embodiment 34] | 100 to 500 |
| Cc1cn(-c2ccc(N3CC(C)N(Cc4ccccc4)C(C)C3)cc2)c(=O)c2cccc(-c3ccc(C#N)cc3)c12 (stereo not drawn) [Embodiment 35] | 100 to 500 |
| Cc1cn(-c2ccc(N3CC(C)N(CC4CC4)C(C)C3)cc2)c(=O)c2cccc(-c3ccc(C#N)cc3)c12 (stereo not drawn) [Embodiment 36] | 100 to 500 |
| Cc1cn(-c2ccc(N3CC(C)N(CC(C)(C)O)C(C)C3)cc2)c(=O)c2cccc(-c3ccc(C#N)cc3)c12 (stereo not drawn) [Embodiment 37] | 100 to 500 |
| Cc1cn(-c2ccc(N3CCN4C(=O)OCC4C3)cc2)c(=O)c2cccc(-c3ccc(C#N)cc3)c12 (stereo not drawn) [Embodiment 42, 4-(4-methyl-1-oxo-2-(4-(3-oxotetrahydro-1H-oxazolo[3,4-a]pyrazin-7(3H)-yl)phenyl)-1,2-dihydroisoquinolin-5-yl)benzonitrile] | 100 to 500 |
| Cc1cn(-c2ccc(N3C[C@@H](C)O[C@@H](C)C3)cc2)c(=O)c2cccc(-c3ccoc3)c12 [Embodiment 43, 2-(4-((2S,6R)-2,6-dimethylmorpholino)phenyl)-5-(furan-3-yl)-4-methylisoquinolin-1(2H)-one] | 1000 to 5000 |
| Cc1cn(-c2ccc(N3C[C@@H](C)O[C@@H](C)C3)cc2)c(=O)c2cccc(-c3ccc(C#N)s3)c12 [Embodiment 44] | 500 to 1000 |
| Cc1cn(-c2ccc(N3C[C@@H](C)O[C@@H](C)C3)cc2)c(=O)c2cccc(-c3ccc(Cl)s3)c12 [Embodiment 45] | 1000 to 5000 |
| Cc1cn(-c2ccc(N3C[C@@H](C)O[C@@H](C)C3)cc2)c(=O)c2cccc(-c3ccc(OC(F)(F)F)cc3)c12 [Embodiment 47] | 1000 to 5000 |

Now from value to compound:

| IC50 [nM] | SMILES |
| --- | --- |
| ≤ 50 | COc1c(-c2ccc(N3C[C@@H](C)O[C@@H](C)C3)cc2)cnc2c(-c3ccc(C#N)cc3)cncc12 |
| 100 to 500 | Cc1cn(-c2ccc(N3C[C@H](C)C[C@@H](C)C3)cc2)c(=O)c2cccc(-c3ccc(C#N)cc3)c12 [Embodiment 1, 4-(2-(4-((3R,5R)-3,5-dimethylpiperidin-1-yl)phenyl)-4-methyl-1-oxo-1,2-dihydroisoquinolin-5-yl)benzonitrile] |
| 100 to 500 | Cc1cn(-c2ccc(N3CC(C)OC(C)C3)cc2)c(=O)c2cccc(-c3ccc(C#N)cc3)c12 (stereo not drawn) [Embodiment 2] |
| 100 to 500 | Cc1cn(-c2ccc(N3CC(C)CC(C)C3)cc2)c(=O)c2cccc(-c3ccc(C#N)cc3)c12 (stereo not drawn) [Embodiment 3] |
| 100 to 500 | Cc1cn(-c2ccc(N3CCOC(C)(C)C3)cc2)c(=O)c2cccc(-c3ccc(C#N)cc3)c12 [Embodiment 4] |
| 100 to 500 | COc1cccc(N2CCN(c3ccc(-n4cc(C)c5c(-c6ccc(C#N)cc6)cccc5c4=O)cc3)CC2(C)C)c1 [Embodiment 5] |
| 100 to 500 | Cc1cn(-c2ccc(N3CCN4CCC[C@H]4C3)cc2)c(=O)c2cccc(-c3ccc(C#N)cc3)c12 [Embodiment 10] |
| 100 to 500 | Cc1cn(-c2ccc(N3CCN4CCCC4C3)cc2)c(=O)c2cccc(-c3ccc(C#N)cc3)c12 (stereo not drawn) [Embodiment 11] |
| 100 to 500 | Cc1cn(-c2ccc(N3CCN(c4nsc5ccccc45)CC3)cc2)c(=O)c2cccc(-c3ccc(C#N)cc3)c12 [Embodiment 13] |
| 50 to 100 | Cc1cn(-c2ccc(N3C[C@@H](C)N(C(=O)c4ccccc4)[C@H](C)C3)cc2)c(=O)c2cccc(-c3ccc(C#N)cc3)c12 [Embodiment 14, 4-(2-(4-((3R,5R)-4-benzoyl-3,5-dimethylpiperazin-1-yl)phenyl)-4-methyl-1-oxo-1,2-dihydroisoquinolin-5-yl)benzonitrile] |
| 100 to 500 | Cc1cn(-c2ccc(N3CC(C)NC(C)C3)cc2)c(=O)c2cccc(-c3ccc(C#N)cc3)c12 (stereo not drawn) [Embodiment 15] |
| 50 to 100 | CCC(=O)N1CCN(c2ccc(-n3cc(C)c4c(-c5ccc(C#N)cc5)cccc4c3=O)cc2)CC1C (stereo not drawn) [Embodiment 17] |
| 50 to 100 | CC(=O)N1C(C)CN(c2ccc(-n3cc(C)c4c(-c5ccc(C#N)cc5)cccc4c3=O)cc2)CC1C (stereo not drawn) [Embodiment 22] |
| 50 to 100 | Cc1cn(-c2ccc(N3CC(C)N(C(=O)C(C)C)C(C)C3)cc2)c(=O)c2cccc(-c3ccc(C#N)cc3)c12 (stereo not drawn) [Embodiment 24] |
| 50 to 100 | Cc1cn(-c2ccc(N3CC(C)N(C(=O)C(C)(C)C)C(C)C3)cc2)c(=O)c2cccc(-c3ccc(C#N)cc3)c12 (stereo not drawn) [Embodiment 25] |
| 50 to 100 | Cc1cn(-c2ccc(N3CC(C)N(C(=O)C4CC4)C(C)C3)cc2)c(=O)c2cccc(-c3ccc(C#N)cc3)c12 (stereo not drawn) [Embodiment 26] |
| ≤ 50 | Cc1cn(-c2ccc(N3CC(C)N(C(=O)c4ccccc4)C(C)C3)cc2)c(=O)c2cccc(-c3ccc(C#N)cc3)c12 (stereo not drawn) [Embodiment 27] |
| ≤ 50 | COC(=O)N1C(C)CN(c2ccc(-n3cc(C)c4c(-c5ccc(C#N)cc5)cccc4c3=O)cc2)CC1C (stereo not drawn) [Embodiment 28] |
| ≤ 50 | Cc1cn(-c2ccc(N3CC(C)N(c4nccs4)C(C)C3)cc2)c(=O)c2cccc(-c3ccc(C#N)cc3)c12 (stereo not drawn) [Embodiment 38] |
| ≤ 50 | Cc1cn(-c2ccc(N3CC(C)(C)C(O)C(C)(C)C3)cc2)c(=O)c2cccc(-c3ccc(C#N)cc3)c12 [Embodiment 39, 4-(2-(4-(4-hydroxy-3,3,5,5-tetramethylpiperidin-1-yl)phenyl)-4-methyl-1-oxo-1,2-dihydroisoquinolin-5-yl)benzonitrile] |
| ≤ 50 | Cc1cn(-c2ccc(N3CCN4C(=O)CC[C@H]4C3)cc2)c(=O)c2cccc(-c3ccc(C#N)cc3)c12 [Embodiment 40, (S)-4-(4-methyl-1-oxo-2-(4-(6-oxo-hexahydropyrrolo[1,2-a]pyrazin-2(1H)-yl)phenyl)-1,2-dihydroisoquinolin-5-yl)benzonitrile] |
| ≤ 50 | Cc1cn(-c2ccc(N3Cc4nnc(C(F)(F)F)n4C(C)C3)cc2)c(=O)c2cccc(-c3ccc(C#N)cc3)c12 (stereo not drawn) [Embodiment 41, 4-(4-methyl-2-(4-(5-methyl-3-(trifluoromethyl)-5,6-dihydro-[1,2,4]triazolo[4,3-a]pyrazin-7(8H)-yl)phenyl)-1-oxo-1,2-dihydroisoquinolin-5-yl)benzonitrile] |
